Earlier results in patent US12377109B2, “Formulation and noncovalent stabilization of olivetolic acid derivatives” (MINGOWOOD PHARMACAL LLC, priority 2020, dated 2025).
Like-named read-outs stand apart in the source and are kept apart here.

Experiments:
[1] = tested on: lithium chloride- and cisplatin-induced vomiting; settings: mice and shrews
[2] = tested on: MDA-MB-231 human breast cancer cells; settings: MDA-MB-231 cells
[3] = for first-order rate constant k for decarboxylation: 100° C.
[4] = 30° C., neat substances and solutions, reviewed studies
[5] = 40° C., neat substances and solutions, reviewed studies

Structure (SMILES)	lowest dose suppressing vomiting [1]	effect on cell migration [2]	pKa	time to 10% degradation ([3]; 25° C., extrapolated from Wang's data)	half-life ([3]; 30° C., calculated from Citti et al.)	half-life ([3]; 30° C., calculated from Wang et al.)	half-life ([3]; 30° C., estimated for the Cerilliant product)	half-life [3, 4]	decrease in potency ([3]; 40° C. over 4 weeks, Cerilliant standard solution in acetonitrile)	half-life ([3]; 40° C., from Wang et al. parameters)	half-life [3, 5]	decay constant ([3]; 80° C., Wang et al.)	half-life ([3]; 80° C., Wang's estimate)	half-life ([3]; 80° C., in hemp oil as extracted, Citti et al.)	first-order rate constant k for decarboxylation [3]	activation energy of degradation ([3]; Wang et al.)	prefactor in the expression for the degradation rate constant ([3]; Wang et al.)	activation energy of degradation ([3]; in hemp oil, Citti et al.)	prefactor ([3]; in hemp oil, Citti et al.)	loss ([3]; 40% and 90% ethanol tinctures, 4° C., dark, 6 months, Peschel)
C=C(C)C1CCC(C)=CC1c1c(O)cc(CCCCC)c(C(=O)O)c1O (stereo not drawn) [CBDA, 3-p-mentha-1,8-dien-3-yl-6-pentyl-beta-resorcylic acid]	0.01 mg/kg	inhibits migration	3.4	approximately 3.7 weeks	4.5 weeks	11.6 weeks	about 12 weeks	about 12 weeks	69.8%	4.06 weeks	about 4 weeks	5.35e-05 s⁻¹	3.6 h	approximately 4.9 hours	4.13×10^−4	27.5 kcal/mol	2e+12 s⁻¹	21.4 kcal/mol	6.9e+08 L/s	–
CCCCCc1cc(O)c(C/C=C(\C)CCC=C(C)C)c(O)c1C(=O)O [CBGA, 3-[(2E)-3,7-dimethylocta-2,6-dienyl]-2,4-dihydroxy-6-pentylbenzoic acid]	–	–	2.9	–	–	–	–	–	–	–	–	–	–	–	–	–	–	–	–	–
CCCCCc1cc2c(c(O)c1C(=O)O)[C@@H]1C=C(C)CC[C@H]1C(C)(C)O2 [THCA, (6aR,10aR)-1-hydroxy-6,6,9-trimethyl-3-pentyl-6a,7,8,10a-tetrahydrobenzo[c]chromene-2-carboxylic acid]	–	–	–	–	–	–	–	about 12 weeks	–	–	about 4 weeks	–	–	–	4.93×10^−4	–	–	–	–	over 50%
